Data from patent US4304782A, “Psychotropic deuterated derivatives of phenylhydantoin and pharmaceutical compositions comprising such derivatives” (Region Wallonne, priority 1979, dated 1981).
Entries after “also recorded” stand apart in the source; their conditions may differ.

Columns and labels:
[1] = Repartition in tissues (brain/blood ratio) after oral administration, rats, titration by gaseous chromatography; format: in vivo; settings: female rat ± 200 gr, oral 100 mg/kg; for Kp at 1 h: after 1 hour; for Kp at 2 h: after 2 hours
Text: (§1) The contents of the various tissues in DPH, DPH-d1 and DPH-d5 have been determined at two times after oral administration (male mice, female rats, titration by gaseous chromatography).
(§2) The whole results are mentioned in the following table III. The indicated values represent the ratio of active substance concentrations in the brain and blood. After oral administration, these values as well in rat as in mouse show a trend, which is marked to very marked, to be higher for deuterated DPH than for DPH itself.

[2] = Repartition in tissues (brain/blood ratio) after oral administration, mice, titration by gaseous chromatography; format: in vivo; settings: mouse, 100 mg/kg, male mice 20-25gr, oral 100 mgr/kg; for Kp at 2 h: after 2 hours; for Kp at 24 h: after 24 hours
Text: as §1, §2

[3] = system: convulsions caused by pentylene tetrazole; experiment: Protection against convulsions caused by pentylene tetrazole (PTZ) in adult female Wistar rats after oral administration; format: in vivo, rat (Wistar; design: key to Chi2 difference between the doses (100 and 200 mgr/kg) / Chi2 difference between the times: NS: not significant; settings: for Chi2 difference between the doses (100 and 200 mgr/kg): 100 vs 200 mgr/kg; for Chi2 difference between the times: 1 hour vs 2 hours + 4 hours; for Chi2 difference between the times / Chi2 difference between DPH and deuterated DPH: * P < 0.05, ** P < 0.01; for Protection of rats against the convulsive effect of PTZ (number of protected animals / total number of animals): PTZ 100 mgr/kg intraperitoneally; for Anticonvulsive activity compared with DPH: in comparison with diphenylhydantoin
Procedure: The active substances according to the invention were tested in order to examine their activity and their effects in comparison with known diphenylhydantoin (DPH). In these tests as follows, 5-(paradeuterophenyl)-5-phenylhydantoin will be designated by DPH-d1 and 5-phenyl-d5 -5-phenylhydantoin by DPH-d5.
To examine the anticonvulsive activity of these substances, they were subjected to testing as to protection against convulsions caused by pentylene tetrazole on adult female rat (Wistar strain: 200-220 gr). One, two or four hours after oral administration of hydantoins (100 and 200 mgr/kg: solution in dimethyl sulfoxide/propylene glycol), animals have received a dose of 100 mgr/kg of pentylene tetrazole (PTZ) intraperitonally, then they were maintained under observation for 1 hour. The absence of appearance of convulsions was considered as a positive response. The results are expressed in the following table I as the ratio between the number of protected animals and the total number of animals.
The research of significant differences has been made on the following aspects: between DPH and deuterated DPH at 1 hour at doses of 100 and 200 mgr/kg, between DPH and deuterated DPH at any time and at a dose of 100 mgr/kg, between doses of 100 and 200 mgr/kg and between the times.

[4] = Accumulation in the cerebral tissue (general statement); format: in vivo; settings: in comparison with diphenylhydantoin
Text: as §1, §2

SMILES	Kp at 1 h [1]	Kp at 2 h [1]	Kp at 2 h [2]	Kp at 24 h [2]	Chi2 difference between the doses (100 and 200 mgr/kg) [3]	Chi2 difference between the times [3]	Protection of rats against the convulsive effect of PTZ (number of protected animals / total number of animals) ([3]; oral 100 mgr/kg, 1 hour)	Protection of rats against the convulsive effect of PTZ (number of protected animals / total number of animals) ([3]; oral 100 mgr/kg, 2 hours)	Protection of rats against the convulsive effect of PTZ (number of protected animals / total number of animals) ([3]; oral 100 mgr/kg, 4 hours)	Protection of rats against the convulsive effect of PTZ (number of protected animals / total number of animals) ([3]; oral 200 mgr/kg, 1 hour)	Anticonvulsive activity compared with DPH [3]	Accumulation in the cerebral tissue [4]	Chi2 difference between DPH and deuterated DPH ([3]; at 1 hour, 100 mgr/kg)	Chi2 difference between DPH and deuterated DPH ([3]; at 1 hour, 200 mgr/kg)	Chi2 difference between DPH and deuterated DPH ([3]; at any time, 100 mgr/kg)	Anticonvulsive activity compared with DPH ([3]; listed as (R,S)-5-phenyl-d5 -5-phenylhydantoin)
O=C1NC(=O)C(c2ccccc2)(c2ccccc2)N1 [DPH, 5,5-diphenylhydantoin, reference compound]	0.9 ± 0.13	5.91 ± 0.93	1.45 ± 0.1	2.09 ± 0.22	NS	NS	4/25	2/10	0/10	5/35						
[2H]c1c([2H])c([2H])c(C2(c3c([2H])c([2H])c([2H])c([2H])c3[2H])NC(=O)NC2=O)c([2H])c1[2H] [5,5-di-(phenyl-d5)-hydantoin]											higher anticonvulsive activity than diphenylhydantoin	accumulation in the cerebral tissue more favorably				
[2H]c1c([2H])c([2H])c(C2(c3ccccc3)NC(=O)NC2=O)c([2H])c1[2H] (stereo not shown) [DPH-d5, 5-phenyl-d5-5-phenylhydantoin]	2.15 ± 0.37	4.49 ± 1.33	2.35 ± 0.26	2.97 ± 0.3	NS	3.58	7/20	2/10	0/10	11/35	A difference in the same direction, close to the significance limit; also recorded: higher anticonvulsive activity	accumulation in the cerebral tissue more favorably	2.17	2.92	1.22	higher anticonvulsive activity than diphenylhydantoin
[2H]c1ccc(C2(c3ccccc3)NC(=O)NC2=O)cc1 (stereo not shown) [DPH-d1, 5-(paradeuterophenyl)-5-phenylhydantoin]	2.1 ± 0.41	15.5 ± 3.7			NS	3.93	9/14	4/10	2/10	11/30	better protects the animals against the convulsive effect of PTZ than DPH; also recorded: higher anticonvulsive activity		9.42	4.36	9.40	
